Usually IC50 stands for the point on the concentration scale where inhibition reaches its midpoint.

Among the data in patent publication US20090156646A1, “PYRIDYLPHENOL COMPOUND AND USE THEREOF” (TAKEDA PHARMACEUTICAL COMPANY LIMITED, priority 2005, published 2009) are IC50 values, retold here.

Where a name gives a salt, the structure may show the parent alone.

The target of this test is T1, human metastin receptor hOT7T175 (Homo sapiens, UniProt Q969F8, L364H).
T1 construct: encoding the entire length of human metastin receptor hOT7T175; expressed in transfected cells; host or cells: CHO/dhFr- cells (ATCC #CRL-9096) stably transfected with pAKKO-hOT7T175; clone h175-16 was used as whole cells for FLIPR
T1 sequence (Q969F8 whole entry L364H): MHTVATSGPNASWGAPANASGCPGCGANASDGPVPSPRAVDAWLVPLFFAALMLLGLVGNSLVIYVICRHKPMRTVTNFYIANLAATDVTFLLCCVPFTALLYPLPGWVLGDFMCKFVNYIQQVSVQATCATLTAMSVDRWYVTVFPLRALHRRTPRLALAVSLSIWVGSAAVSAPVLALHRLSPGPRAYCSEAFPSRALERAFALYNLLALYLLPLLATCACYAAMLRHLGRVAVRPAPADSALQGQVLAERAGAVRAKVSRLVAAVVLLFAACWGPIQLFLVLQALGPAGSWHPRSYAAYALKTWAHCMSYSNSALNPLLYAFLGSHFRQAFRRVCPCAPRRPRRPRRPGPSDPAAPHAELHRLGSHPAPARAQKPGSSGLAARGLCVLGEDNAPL
Kind of test: binding inhibiting activity: 125I-metastin (40-54) binding to cell membrane fraction of h175 KB34 cells. As to conditions: room temperature 60 minutes, read-out: binding inhibiting activity, represented by the IC50 value. The procedure: cDNA fragments (SEQ ID NO: 2) encoding the entire length of human metastin receptor hOT7T175 were incorporated into expression vector pAKKO1.11H to produce animal cell expression plasmids pAKKO-hOT7T175. CHO/dhFr-cells (ATCC, #CRL-9096) were seeded onto 6 cm culture dishes (Becton Dickinson) at a density of 0.3×10^6 cells/dish, and cultured in the conditions of 48 hours, 37° C. and 5% CO2. 5 μg pAKKO-hOT7T175 plasmid DNA was transfected to the resultant cells by a known method (described in Example 3 of WO 00/24890) using the Cellphect Transfection Kit (Amersham, #27-9268-01). The DNA-transfected cells were cultured in the Dulbecco's modified Eagle medium (DMEM) (Sigma, #D6046) containing 10% dialyzed FBS (Biowest, #S180D), 1× Non-Essential Amino Acid (Invitrogen, #11140-050) and 50 μg/ml Gentamycin (Invitrogen, #15750-060; and cell strains stably expressing the plasmid genes were selected. The obtained 41 clones were treated with the FLIPR assay (in accordance with the method described in Example 3 of WO 00/24890), and the reactivity to the human metastin […] (Nos. 40 to 54 of the human metastin sequence; Peptide Institute, Inc., #4389-v) was evaluated. In the end, h175 KB34 cell strains were selected. By substantially the same method, h175-16 cell strains were also produced.
The h175 KB34 cells were cultured to be on the stage of 40-50% confluency using a cell factory (Nunc, #164327), and then cells were recovered in the following method.
First, the medium was disposed, and the cells were washed twice with 200 ml EDTA/PBS(−). Another 200 ml of EDTA/PBS(−) was added, and the cells were kept still for 20 minutes at room temperature until being peeled off. The cells were recovered into four 50 ml tubes (Becton Dickinson, #352070), and centrifuged (2,000 rpm, 10 min., 4° C.) by a reduced performance centrifuge (TOMY, RL-101). The supernatant was disposed, and the pellets in the four tubes were each suspended with 10 ml EDTA/PBS(−) and collected into one tube (Becton Dickinson, #352070). The pellet was further centrifuged (2,000 rpm, 10 min., 4° C.). The resultant pellet was suspended with 20 ml ice-cooled homogenizer buffer [10 mM NaHCO3, 2 mM EGTA, 0.2 mM magnesium acetate, 10 μg/ml Leupeptin (Peptide Institute, Inc., #4041), 10 μg/ml E-64 (Peptide Institute, Inc., # 4096), 100 μg/ml o-phenanthroline (Dojindo Laboratories), 90 μg/ml PMSF (Wako Pure Chemical Industries, Ltd.), 10 μg/ml Pepstatin A (Peptide Institute, Inc., #4397), pH7.3]. The cell suspension was homogenized 3 times, each for 30 seconds, using a Polytron homogenizer. The resultant homogenate was centrifuged (2,500 rpm, 10 min, 4° C.) using a high performance refrigerated centrifuge (Hitachi, Ltd., CR26H). The supernatant was recovered into a super-centrifuge tube, and super-centrifuged (30,000 rpm, 60 min, 4° C.) using a super-centrifuge (Hitachi, Ltd., SCP70H). 3 ml homogenizer buffer was added to the resultant pellet, and the pellet was suspended by pipetting. 3 ml glycerol (Wako Pure Chemical Industries, Ltd.) was added to the resultant suspension and diluted 2-folds. The resultant substance was used as a cell membrane fraction of the h175 KB34 cells. Each […] of the membrane fraction was put into a 1.5 ml tube (Eppendorf, #0030120.086), stored in a freezer (−30 C) so as not to be frozen, and used for a binding assay.
An assay buffer was prepared on the day of the test by adding, to each 100 ml of an assay basic buffer [20 mM Tris, 2.5 mM Magnesium Acetate, 2 mM EGTA, pH 7.4], 1 mg Leupeptin (Peptide Institute, Inc., 4041), 1 mg E-64 (Peptide Institute, Inc., 4096), 10 mg o-phenanthroline (Dojindo Laboratories), 9 mg PMSF (Wako Pure Chemical Industries, Ltd.) and 1 mg Pepstatin A (Peptide Institute, Inc., 4397). The prepared assay buffer was stored at 4° C. until being used. When the measurement was to be performed with no BSA, the above-described assay buffer was used. […]

In the case of `N#Cc1c(N2CCCC(C(=O)NCCN)C2)cc(-c2ccccc2O)nc1NC(=O)c1ccco1` (stereo not drawn) [Example 288, N-(2-aminoethyl)-1-[3-cyano-2-(2-furoylamino)-6-(2-hydroxyphenyl)pyridin-4-yl]piperidine-3-carboxamide hydrochloride], the IC50 was not above 10 µM. `COc1ccc(C(=O)Nc2nc(-c3ccc(Cl)cc3O)cc(-c3cccc(NC(=O)CCN)c3)c2C#N)c(OC)c1` [Example 255, N-[4-[3-(β-alanylamino)phenyl]-6-(4-chloro-2-hydroxyphenyl)-3-cyanopyridin-2-yl]-2,4-dimethoxybenzamide dihydrochloride]: the concentration for half-maximal inhibition (IC50) is not above 10 µM. To `CCN1CCN(Cc2cccc(-c3cc(-c4ccc(F)cc4O)nc(NC(=O)c4ccco4)c3C#N)c2)CC1` [Example 334, N-[3-cyano-4-{3-[(4-ethylpiperazin-1-yl)methyl]phenyl}-6-(4-fluoro-2-hydroxyphenyl)pyridin-2-yl]-2-furamide dihydrochloride] belongs not above 10 µM; to `N#Cc1c(-c2cccc(NC(=O)CCN)c2)cc(-c2ccc(Cl)cc2O)nc1NC(=O)c1ccno1` [Example 251, N-[4-[3-(β-alanylamino)phenyl]-6-(4-chloro-2-hydroxyphenyl)-3-cyanopyridin-2-yl]isoxazole-5-carboxamide hydrochloride], not above 10 µM; to `N#Cc1c(-c2cccc(NC(=O)CCN)c2)cc(-c2ccccc2O)nc1NC(=O)c1ccccc1` [Example 31, N-[4-(3-(β-alanylamino)phenyl)-3-cyano-6-(2-hydroxyphenyl)pyridin-2-yl]benzamide trifluoroacetate], not above 10 µM.

Consider `CC(N)CC(=O)Nc1cccc(-c2cc(-c3ccc(Cl)cc3O)nc(NC(=O)c3cccn3C)c2C#N)c1` (stereo not drawn) [Example 274, N-[4-{3-[(3-aminobutanoyl)amino]phenyl}-6-(4-chloro-2-hydroxyphenyl)-3-cyanopyridin-2-yl]-1-methyl-1H-pyrrole-2-carboxamide hydrochloride], for which the half-maximal inhibitory concentration (IC50) is not above 10 µM. For the compound `CNCC(=O)Nc1cccc(-c2cc(-c3ccc(F)cc3O)nc(NC(=O)c3ccco3)c2C#N)c1` [Example 312, N-(3-cyano-6-(4-fluoro-2-hydroxyphenyl)-4-{3-[(N-methylglycyl)amino]phenyl}pyridin-2-yl)-2-furamide hydrochloride], the 50% inhibitory concentration (IC50) is not above 10 µM. As for `N#Cc1c(-c2cccc(NC(=O)CCN)c2)cc(-c2cc(Cl)ccc2O)nc1NC(=O)c1cccs1` [Example 46, N-{4-[3-(β-alanylamino)phenyl]-6-(5-chloro-2-hydroxyphenyl)-3-cyanopyridin-2-yl}thiophene-2-carboxamide trifluoroacetate], the IC50 was not above 10 µM. Turning to `N#Cc1c(-c2cccc(NC(=O)[C@H](N)Cc3c[nH]cn3)c2)cc(-c2ccc(F)cc2O)nc1NC(=O)c1ccco1` [Example 261, N-{3-[3-cyano-6-(4-fluoro-2-hydroxyphenyl)-2-(2-furoylamino)pyridin-4-yl]phenyl}-D-histidinamide hydrochloride], the 50% inhibitory concentration (IC50) was not above 10 µM. Take `N#Cc1c(-c2cccc(NC(=O)[C@@H](N)Cc3cnc[nH]3)c2)cc(-c2ccc(Cl)cc2O)nc1NC(=O)c1ccco1` [Example 243, N-{3-[6-(4-chloro-2-hydroxyphenyl)-3-cyano-2-(2-furoylamino)pyridin-4-yl]phenyl}-L-histidinamide dihydrochloride]: the half-maximal inhibitory concentration (IC50) is not above 10 µM. For `N#Cc1c(-c2cccc(NC(=O)CCN)c2)cc(-c2ccc(Cl)cc2O)nc1NC(=O)c1ccoc1` [Example 254, N-[4-[3-(β-alanylamino)phenyl]-6-(4-chloro-2-hydroxyphenyl)-3-cyanopyridin-2-yl]-3-furamide hydrochloride], the 50% inhibitory concentration (IC50) was not above 10 µM. Turning to `C[C@H](N)CNC(=O)c1cccc(-c2cc(-c3ccc(Cl)cc3O)nc(NC(=O)c3ccno3)c2C#N)c1` [Example 268, N-[4-[3-({[(2S)-2-aminopropyl]amino}carbonyl)phenyl]-6-(4-chloro-2-hydroxyphenyl)-3-cyanopyridin-2-yl]isoxazole-5-carboxamide hydrochloride], the IC50 was not above 10 µM. As for `CCN1CCN(c2cccc(-c3cc(-c4ccc(F)cc4O)nc(NC(=O)c4ccco4)c3C#N)c2)CC1` [Example 330, N-[3-cyano-4-[3-(4-ethylpiperazin-1-yl)phenyl]-6-(4-fluoro-2-hydroxyphenyl)pyridin-2-yl]-2-furamide hydrochloride], the 50% inhibitory concentration (IC50) was not above 10 µM. Turning to `CCCC(CC(=O)Nc1cccc(-c2cc(-c3ccc(F)cc3O)nc(NC(=O)c3ccco3)c2C#N)c1)N(CC)CC` (stereo not drawn) [Example 317, N-[3-cyano-4-(3-{[3-(diethylamino)hexanoyl]amino}phenyl)-6-(4-fluoro-2-hydroxyphenyl)pyridin-2-yl]-2-furamide hydrochloride], the IC50 is not above 10 µM.

For the compound `CN(C(=O)CN)c1cccc(-c2cc(-c3ccccc3O)nc(NC(=O)c3cccs3)c2C#N)c1` [Example 41, N-[3-cyano-4-{3-[glycyl(methyl)amino]phenyl}-6-(2-hydroxyphenyl)pyridin-2-yl]thiophene-2-carboxamide dihydrochloride], the IC50 was not above 10 µM.

As for `N#Cc1c(-c2cccc(CN3CCCNCC3)c2)cc(-c2ccc(F)cc2O)nc1NC(=O)c1ccco1` [Example 335, N-[3-cyano-4-[3-(1,4-diazepan-1-ylmethyl)phenyl]-6-(4-fluoro-2-hydroxyphenyl)pyridin-2-yl]-2-furamide dihydrochloride], the IC50 was not above 10 µM. Take `CN(C)CCN(C)c1cccc(-c2cc(-c3ccc(F)cc3O)nc(NC(=O)c3ccco3)c2C#N)c1` [Example 324, N-[3-cyano-4-{3-[[2-(dimethylamino)ethyl] (methyl)amino]phenyl}-6-(4-fluoro-2-hydroxyphenyl)pyridin-2-yl]-2-furamide]: the IC50 is not above 10 µM.

Consider `COc1c(NC(=O)OC(C)(C)C)cccc1-c1cc(-c2ccccc2O)nc(NC(=O)c2ccco2)c1C#N` [Example 275, tert-butyl{3-[3-cyano-2-(2-furoylamino)-6-(2-hydroxyphenyl)pyridin-4-yl]-2-methoxyphenyl}carbamate], for which the IC50 was not above 10 µM. With `N#Cc1c(-c2cccc(NC(=O)[C@@H](N)CN)c2)cc(-c2ccc(F)cc2O)nc1NC(=O)c1ccco1` [Example 302, N-[4-{3-[(3-amino-L-alanyl)amino]phenyl}-3-cyano-6-(4-fluoro-2-hydroxyphenyl)pyridin-2-yl]-2-furamide dihydrochloride], the 50% inhibitory concentration (IC50) was not above 10 µM. As to `CCN(CC)CCN(CC)c1cccc(-c2cc(-c3ccc(F)cc3O)nc(NC(=O)c3ccco3)c2C#N)c1` [Example 304, N-[3-cyano-4-{3-[[2-(diethylamino)ethyl] (ethyl)amino]phenyl}-6-(4-fluoro-2-hydroxyphenyl)pyridin-2-yl]-2-furamide dihydrochloride], the half-maximal inhibitory concentration (IC50) is not above 10 µM. To `N#Cc1c(-c2cccc(NC(=O)C[C@H]3CCCN3)c2)cc(-c2ccc(F)cc2O)nc1NC(=O)c1ccco1` [Example 314, N-[3-cyano-6-(4-fluoro-2-hydroxyphenyl)-4-(3-{[(2R)-pyrrolidin-2-ylacetyl]amino}phenyl)pyridin-2-yl]-2-furamide hydrochloride] belongs not above 10 µM.
